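A five-concentration, 48-hour dose response in 96-well plates underlies each endpoint, interpolated linearly between surrounding concentrations. GI50 is the concentration that inhibits growth by half. At the TGI there is no net growth.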
Assays:
Assay in all cases: NCI tumour cell line growth inhibition, 48 h
LOX IMVI melanoma = system: LOX IMVI melanoma
HT29 colon = system: HT29 colon
HCC-2998 colon = system: HCC-2998 colon
UACC-62 melanoma = system: UACC-62 melanoma
DU-145 prostate = system: DU-145 prostate
NCI-H460 lung = system: NCI-H460 lung
MALME-3M melanoma = system: MALME-3M melanoma
NCI-H23 lung = system: NCI-H23 lung
SF-268 CNS = system: SF-268 CNS
TK-10 renal = system: TK-10 renal

SMILES	GI50 (LOX IMVI melanoma) [µM]	TGI (LOX IMVI melanoma) [µM]	GI50 (HT29 colon) [µM]	TGI (HT29 colon) [µM]	GI50 (HCC-2998 colon) [µM]	TGI (HCC-2998 colon) [µM]	GI50 (UACC-62 melanoma) [µM]	TGI (UACC-62 melanoma) [µM]	GI50 (DU-145 prostate) [µM]	TGI (DU-145 prostate) [µM]	GI50 (NCI-H460 lung) [µM]	TGI (NCI-H460 lung) [µM]	GI50 (MALME-3M melanoma) [µM]	TGI (MALME-3M melanoma) [µM]	GI50 (NCI-H23 lung) [µM]	TGI (NCI-H23 lung) [µM]	GI50 (SF-268 CNS) [µM]	TGI (SF-268 CNS) [µM]	GI50 (TK-10 renal) [µM]	TGI (TK-10 renal) [µM]
CC(C)n1nc(C#Cc2cccc(NC(=O)c3cccc(C(F)(F)F)c3)c2)c2c(N)ncnc21	0.204	1.04	0.485	> 100	2.36	75.7	0.19	1.24	2.78	12.3	3	> 100	0.203	4.41	1.95	22.8	2.15	10.4	1.78	4.45
CC1SC2(CCCCC2)N(NC(=O)c2[nH]c3ccc(F)cc3c2-c2ccccc2)C1=O (centres undefined)	> 100	> 100	> 100	> 100	> 100	> 100	21.2	> 100	> 100	> 100	> 100	> 100	26.1	> 100	> 100	> 100	78.7	> 100	35.3	> 100
N#CC1(C#N)C2C=CC(C3CCC=C32)C1(C#N)C#N (centres undefined)	–	> 10	–	> 10	–	> 10	–	> 10	–	> 10	–	> 10	–	5.5	–	> 10	–	> 10	–	> 9.01
COC(=O)Nc1nc2ccc(Sc3ccc(NC(=O)Nc4cc(C(F)(F)F)ccc4F)cc3)cc2[nH]1	1.5	6.16	1.4	4.54	3.96	13.1	1.85	8.38	4.15	8.27	2.73	6.79	2.99	23.6	3.84	11.9	3.89	9.6	5.11	11.3
CC(=O)Nc1ccc(-n2cnc3cc(-c4ccc(OCCN5CCCCC5)cc4)ccc32)cc1	4.5	8.88	1.12	3.92	5.98	14.6	6.79	13	10.2	> 33.3	1.49	5.3	2.46	7.59	5.07	11.6	5.28	11.5	9.11	15.9
Cc1cc2c(cc1Cl)SC1=NN(C)C(c3ccccc3O)N1S2(=O)=O (centres undefined)	40.5	> 100	> 100	> 100	65.5	> 100	73.8	> 100	65.7	> 100	37.4	> 100	> 100	> 100	> 100	> 100	61.6	> 100	82.1	> 100
COc1cc(/C=C\c2cccnc2Nc2ccccc2)cc(OC)c1OC	4.51	24.6	5.51	98.3	7.74	> 100	4.96	25.4	6.22	> 100	3.61	26.7	15.3	87.4	10.2	> 100	8.19	> 100	15.5	80.7
CCN(CC)CCOc1ccc(C2=C(c3ccccc3)CCc3cc(OC)ccc32)cc1	1.75	3.64	0.445	1.87	1.39	2.81	1.87	3.9	6.69	17.5	1.84	3.52	1.69	3.41	2.9	11.3	5.97	18	2.74	9.47
CN1C(=O)C23CC4=CC=CC(O)C4N2C(=O)C1(CO)SS3 (centres undefined)	–	0.492	–	11.4	–	0.351	–	0.424	–	0.318	–	0.801	–	0.449	–	0.348	–	0.489	–	0.34
COc1ccc(N(Cc2cc(OC)c(OC)c(OC)c2)C2OC(=O)c3ccccc32)cc1 (centres undefined)	0.712	> 100	0.365	> 43.1	1.57	> 28.5	0.498	> 100	0.886	54.3	0.394	> 60.2	0.511	> 100	1.15	> 100	0.882	> 100	–	> 100
O=C(Cc1nc2ccc([N+](=O)[O-])cc2[nH]c1=O)C(=O)Nc1cc(Cl)c(Cl)cc1Cl	–	> 100	–	> 100	–	> 100	–	> 100	–	> 100	–	> 100	–	> 100	–	> 100	–	> 100	–	> 100
C[C@]12CC[C@@H]3c4ccc(O)cc4CC[C@H]3[C@@H]1CC[C@@H]2NS(=O)(=O)c1ccc(-c2ccccc2)cc1	10.6	23.9	3.3	9.16	4.39	> 100	4.2	20	6.54	> 100	3.05	9.48	3.01	12.6	3.49	17.2	3.93	> 100	4.42	55.9
COc1cc(C2c3cc4c(cc3[C@@H](Nc3cccc(O)c3)C3COC(=O)[C@H]23)OCO4)cc(OC)c1O (some centres undefined)	0.535	7.3	–	18.8	–	8.81	0.603	7.08	–	1.75	0.145	3.55	–	11.2	0.445	5.52	0.942	14.1	–	10.7
